We go through 1 compound from ChEMBL document CHEMBL5260842 (J Med Chem, 2019).

As a reminder, the EC50 is the concentration needed to bring the measured effect to its halfway point.

Active and inactive are the calls of the source. The calls are words filed in the database; no cut-off is given here.

Assay [1] addresses T1, von Hippel-Lindau disease tumor suppressor/Androgen receptor (Homo sapiens, UniProt P10275+P40337). As to the kind of experiment: Protac activity at VHL/AR in AR-positive human LNCaP cells assessed as induction of androgen receptor degradation at 0.01 uM incubated for 6 hrs by Western blot analysis (reference value: 0%). It is filed as cell-based. In general terms: A western blot detects proteins with antibodies after separation by electrophoresis.
Target sequence in this assay (P10275 whole entry, looked up): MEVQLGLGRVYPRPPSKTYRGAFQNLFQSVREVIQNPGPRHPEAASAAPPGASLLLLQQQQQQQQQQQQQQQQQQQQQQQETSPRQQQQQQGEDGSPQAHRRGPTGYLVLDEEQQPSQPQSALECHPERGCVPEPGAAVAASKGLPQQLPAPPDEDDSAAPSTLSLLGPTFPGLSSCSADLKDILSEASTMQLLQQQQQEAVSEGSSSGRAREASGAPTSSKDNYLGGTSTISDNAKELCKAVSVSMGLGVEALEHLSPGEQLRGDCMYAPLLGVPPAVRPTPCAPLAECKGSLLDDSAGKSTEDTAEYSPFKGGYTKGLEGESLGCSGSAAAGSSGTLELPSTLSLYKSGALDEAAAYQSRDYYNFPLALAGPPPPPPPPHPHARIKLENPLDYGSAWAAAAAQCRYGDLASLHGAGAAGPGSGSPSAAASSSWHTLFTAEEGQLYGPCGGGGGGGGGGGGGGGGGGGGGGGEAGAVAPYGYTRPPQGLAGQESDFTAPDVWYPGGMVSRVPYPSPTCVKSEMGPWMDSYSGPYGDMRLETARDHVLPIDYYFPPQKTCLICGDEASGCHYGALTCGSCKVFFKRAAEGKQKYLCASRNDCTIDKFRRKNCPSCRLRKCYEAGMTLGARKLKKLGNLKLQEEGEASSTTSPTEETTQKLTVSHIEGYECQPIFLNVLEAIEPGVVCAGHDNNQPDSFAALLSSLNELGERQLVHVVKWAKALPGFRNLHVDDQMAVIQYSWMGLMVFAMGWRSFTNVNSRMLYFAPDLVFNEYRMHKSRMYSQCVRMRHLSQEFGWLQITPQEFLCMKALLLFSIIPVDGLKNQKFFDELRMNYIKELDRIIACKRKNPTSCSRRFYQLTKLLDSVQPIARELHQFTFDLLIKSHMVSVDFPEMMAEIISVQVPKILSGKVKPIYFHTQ
Target sequence in this assay (P40337 whole entry, looked up): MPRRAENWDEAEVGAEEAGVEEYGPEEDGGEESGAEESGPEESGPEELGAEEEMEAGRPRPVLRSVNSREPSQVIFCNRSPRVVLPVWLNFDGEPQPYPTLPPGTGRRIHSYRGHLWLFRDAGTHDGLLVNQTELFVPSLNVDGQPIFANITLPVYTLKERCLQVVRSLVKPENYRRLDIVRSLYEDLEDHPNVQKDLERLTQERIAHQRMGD

Assay [2] concerns the target T1, von Hippel-Lindau disease tumor suppressor/Androgen receptor. In words: Protac activity at VHL/AR in human LNCaP cells assessed as induction of protein degradation measured after 24 hrs by Western blot analysis. It is filed as cell-based.
Target sequence in this assay (P10275 whole entry): as the sequence (P10275 whole entry, looked up) above
Target sequence in this assay (P40337 whole entry): as the sequence (P40337 whole entry, looked up) above
The target is the same in assay [3]. As to the kind of experiment: Protac activity at VHL/AR in human VCaP cells assessed as induction of protein degradation at 10 nM measured after 24 hrs by Western blot analysis relative to control. In kind it is cell-based.
Target sequence in this assay (P10275 whole entry, looked up): as the sequence (P10275 whole entry, looked up) above
Target sequence in this assay (P40337 whole entry, looked up): as the sequence (P40337 whole entry, looked up) above
Assay [4] concerns LNCaP. As to the kind of experiment: Downregulation of FKBP5 mRNA expression in human LNCaP cells measured after 24 hrs by qRT-PCR analysis. The conditions noted are these: dose 0.1-10000 nM. It is filed as functional, cell-based. In general terms: Real-time PCR tracks product formation cycle by cycle.
Assay [5] has as its system VCaP. As to the kind of experiment: Downregulation of FKBP5 mRNA expression in human VCaP cells measured after 24 hrs by regular serum based qRT-PCR analysis. It is filed as functional, cell-based. The conditions noted are these: dose 1-1000 nM.
A short description of assay [6]: Downregulation of TMPRSS2 mRNA expression in human LNCaP cells at 10 nM measured after 24 hrs by qRT-PCR analysis relative to control. In kind it is functional.
Assay [7] is described as follows: Downregulation of TMPRSS2 mRNA expression in human VCaP cells at 10 nM measured after 24 hrs by regular serum based qRT-PCR analysis relative to control. It is filed as functional.
Assay [8] is described as follows: Downregulation of TMPRSS2 mRNA expression in human VCaP cells at 10 nM measured after 24 hrs by charcoal stripped serum based qRT-PCR analysis relative to control. In kind it is functional.
Assay [9] concerns VCaP. As to the kind of experiment: Downregulation of ERG gene expression in human VCaP cells measured after 24 hrs by regular serum based qRT-PCR analysis. In kind it is functional, cell-based. The conditions noted are these: dose 1-1000 nM.
In assay [10] the test system is LNCaP. In words: Potency index, ratio of enzalutamide IC50 to test compound IC50 for cytotoxicity against AR-positive human LNCaP cells assessed as inhibition of cell growth incubated for 7 days in presence of AR agonist, R1881 in charcoal stripped medium by WST-8 assay. In kind it is functional. The conditions noted are these: time 7 day. (Tetrazolium assays rely on reduction of a dye to a coloured formazan, in cell work by metabolically active cells.)

Assay [11] has as its target T1, von Hippel-Lindau disease tumor suppressor/Androgen receptor. In words: Protac activity at VHL/AR in AR-positive human LNCaP cells assessed as induction of androgen receptor degradation at 100 nM preincubated with proteasome inhibitor, MG132 for 2 hrs followed by compound addition and measured after 6 hrs by Western blot analysis. In kind it is cell-based.
Target sequence in this assay (P10275 whole entry, looked up): as the sequence (P10275 whole entry, looked up) above
Target sequence in this assay (P40337 whole entry, looked up): as the sequence (P40337 whole entry, looked up) above

As to `Cc1ncsc1-c1ccc([C@H](CC(=O)N2CCC(N3CCC(C#Cc4ccc(C(=O)N[C@H]5C(C)(C)[C@H](Oc6ccc(C#N)c(Cl)c6)C5(C)C)cc4)CC3)CC2)NC(=O)[C@@H]2C[C@@H](O)CN2C(=O)[C@@H](NC(=O)C2(F)CC2)C(C)(C)C)cc1`, the Activity in [1] is 89%; in assay [3], over 95%; in assay [4] it was “Dose-Dependent Effect”; in assay [5] it was “Dose-Dependent Effect”; in [6], over 50%; in assay [7], over 50%. The Activity in assay [8] was over 50%; in assay [9], “Dose-Dependent Effect”. In [2], the EC50 amounted to 0.86 nM. For the same compound, the “Ratio IC50” value in assay [10] is over 100. In addition, the result in [11] was inactive.
